Results taken from patent US12343326B2, “Psychoactive medicines and their use for treating psychiatric and neurological conditions and disorders” (Transcend Therapeutics, Inc., priority 2021, dated 2025).

Tests used:
Assay in all cases: β-arrestin based GPCR screen (PathHunter / GPCRmax), antagonist mode
168 GPCRs [1] = molecular target: 168 GPCRs (Homo sapiens, UniProt P08588); settings: ADRB1, Antagonist
168 GPCRs [2] = molecular target: 168 GPCRs (Homo sapiens, UniProt P41586); settings: ADCYAP1R1, Antagonist
168 GPCRs [3] = molecular target: 168 GPCRs (Homo sapiens, UniProt P51686); settings: CCR9, Antagonist
168 GPCRs [4] = molecular target: 168 GPCRs (Homo sapiens, UniProt P47898); settings: HTR5A
168 GPCRs [5] = molecular target: T1, 168 GPCRs (Homo sapiens, UniProt P30939); settings: HTR1F
T1 sequence (P30939 1-366): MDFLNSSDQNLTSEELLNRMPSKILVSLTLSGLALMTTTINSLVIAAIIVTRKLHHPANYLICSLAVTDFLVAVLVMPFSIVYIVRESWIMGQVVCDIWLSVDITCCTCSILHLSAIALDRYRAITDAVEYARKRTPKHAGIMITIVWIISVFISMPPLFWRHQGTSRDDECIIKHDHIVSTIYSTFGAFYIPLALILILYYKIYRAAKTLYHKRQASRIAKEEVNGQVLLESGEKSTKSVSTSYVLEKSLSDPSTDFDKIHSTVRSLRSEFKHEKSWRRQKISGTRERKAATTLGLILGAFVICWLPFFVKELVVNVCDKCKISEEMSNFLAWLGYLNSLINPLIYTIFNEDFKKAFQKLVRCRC

168 GPCRs [6] = molecular target: 168 GPCRs (Homo sapiens, UniProt P25021)
168 GPCRs [7] = molecular target: 168 GPCRs (Homo sapiens, UniProt P32239); settings: CCKBR, Antagonist
168 GPCRs [8] = molecular target: T2, 168 GPCRs (Homo sapiens, UniProt Q9Y5Y4)
T2 sequence (Q9Y5Y4 1-395): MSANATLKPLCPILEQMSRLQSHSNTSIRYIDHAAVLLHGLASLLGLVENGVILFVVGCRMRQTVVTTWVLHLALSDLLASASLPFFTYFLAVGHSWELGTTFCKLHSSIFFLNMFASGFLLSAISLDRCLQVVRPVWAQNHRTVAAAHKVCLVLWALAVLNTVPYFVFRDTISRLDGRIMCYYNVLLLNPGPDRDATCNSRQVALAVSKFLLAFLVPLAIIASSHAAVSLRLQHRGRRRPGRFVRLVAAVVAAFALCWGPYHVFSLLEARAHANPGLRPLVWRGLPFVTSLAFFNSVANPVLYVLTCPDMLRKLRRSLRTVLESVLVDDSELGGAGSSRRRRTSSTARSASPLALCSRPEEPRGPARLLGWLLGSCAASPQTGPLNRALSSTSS

168 GPCRs [9] = molecular target: 168 GPCRs (Homo sapiens, UniProt Q15722); settings: LTB4R
168 GPCRs [10] = molecular target: 168 GPCRs (Homo sapiens, UniProt P08912); settings: CHRM5, Antagonist
168 GPCRs [11] = molecular target: 168 GPCRs (Homo sapiens, UniProt P48146)
168 GPCRs [12] = molecular target: 168 GPCRs (Homo sapiens, UniProt P25103)
168 GPCRs [13] = molecular target: 168 GPCRs (Homo sapiens, UniProt O00574)
168 GPCRs [14] = molecular target: 168 GPCRs (Homo sapiens, UniProt P28222); settings: HTR1B
168 GPCRs [15] = molecular target: 168 GPCRs (Homo sapiens, UniProt P55085)
168 GPCRs [16] = molecular target: 168 GPCRs (Homo sapiens, UniProt P46663); settings: BDKRB1, Antagonist
168 GPCRs [17] = molecular target: 168 GPCRs (Homo sapiens, UniProt P47900)
168 GPCRs (Homo sapiens, UniProt P47900), sequence (P47900 whole entry): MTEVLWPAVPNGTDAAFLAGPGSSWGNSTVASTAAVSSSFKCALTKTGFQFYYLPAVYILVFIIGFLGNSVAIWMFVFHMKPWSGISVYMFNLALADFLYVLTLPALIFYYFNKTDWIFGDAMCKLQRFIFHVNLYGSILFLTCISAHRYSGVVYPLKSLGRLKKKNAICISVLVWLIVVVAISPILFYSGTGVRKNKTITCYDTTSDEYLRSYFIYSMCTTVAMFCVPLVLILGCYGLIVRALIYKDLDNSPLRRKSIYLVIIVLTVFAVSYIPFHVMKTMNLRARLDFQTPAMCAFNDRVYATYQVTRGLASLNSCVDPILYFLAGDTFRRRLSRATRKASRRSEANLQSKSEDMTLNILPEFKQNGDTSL

168 GPCRs (Homo sapiens, UniProt P32239), sequence (P32239 whole entry): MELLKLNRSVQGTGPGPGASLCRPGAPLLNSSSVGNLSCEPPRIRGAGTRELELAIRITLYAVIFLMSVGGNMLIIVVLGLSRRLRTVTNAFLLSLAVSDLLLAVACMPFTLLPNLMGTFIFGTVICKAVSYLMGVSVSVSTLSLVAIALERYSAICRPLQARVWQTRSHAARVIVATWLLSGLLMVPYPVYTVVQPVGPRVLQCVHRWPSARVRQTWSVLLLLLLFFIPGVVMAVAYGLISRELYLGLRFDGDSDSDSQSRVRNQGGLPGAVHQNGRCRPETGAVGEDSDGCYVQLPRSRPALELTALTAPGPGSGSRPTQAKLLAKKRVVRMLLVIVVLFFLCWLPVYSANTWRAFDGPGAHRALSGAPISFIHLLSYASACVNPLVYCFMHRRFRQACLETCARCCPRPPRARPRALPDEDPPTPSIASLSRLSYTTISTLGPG
168 GPCRs (Homo sapiens, UniProt P08588), sequence (P08588 whole entry): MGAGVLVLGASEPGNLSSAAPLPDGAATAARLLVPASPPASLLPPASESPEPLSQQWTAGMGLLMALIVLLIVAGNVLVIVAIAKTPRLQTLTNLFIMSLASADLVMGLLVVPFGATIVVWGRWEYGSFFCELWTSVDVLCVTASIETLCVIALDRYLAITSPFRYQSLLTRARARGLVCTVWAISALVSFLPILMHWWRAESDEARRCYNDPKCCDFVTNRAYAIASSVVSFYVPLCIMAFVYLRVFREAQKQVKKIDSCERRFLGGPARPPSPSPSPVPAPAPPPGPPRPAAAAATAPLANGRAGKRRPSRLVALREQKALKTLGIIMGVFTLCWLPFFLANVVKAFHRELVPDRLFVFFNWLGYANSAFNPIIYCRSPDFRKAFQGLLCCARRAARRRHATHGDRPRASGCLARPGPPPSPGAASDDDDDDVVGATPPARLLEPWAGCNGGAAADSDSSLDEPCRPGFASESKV
168 GPCRs (Homo sapiens, UniProt O00574), sequence (O00574 whole entry): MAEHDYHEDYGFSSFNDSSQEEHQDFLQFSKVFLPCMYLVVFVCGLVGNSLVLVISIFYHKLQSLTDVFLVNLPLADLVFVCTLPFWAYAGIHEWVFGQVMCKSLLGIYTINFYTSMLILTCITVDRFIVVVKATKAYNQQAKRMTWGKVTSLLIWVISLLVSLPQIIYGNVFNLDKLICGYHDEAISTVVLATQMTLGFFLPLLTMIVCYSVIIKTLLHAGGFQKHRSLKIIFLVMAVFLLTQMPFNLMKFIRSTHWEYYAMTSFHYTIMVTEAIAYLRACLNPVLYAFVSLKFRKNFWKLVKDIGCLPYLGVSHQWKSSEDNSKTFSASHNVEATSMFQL
168 GPCRs (Homo sapiens, UniProt P25103), sequence (P25103 whole entry): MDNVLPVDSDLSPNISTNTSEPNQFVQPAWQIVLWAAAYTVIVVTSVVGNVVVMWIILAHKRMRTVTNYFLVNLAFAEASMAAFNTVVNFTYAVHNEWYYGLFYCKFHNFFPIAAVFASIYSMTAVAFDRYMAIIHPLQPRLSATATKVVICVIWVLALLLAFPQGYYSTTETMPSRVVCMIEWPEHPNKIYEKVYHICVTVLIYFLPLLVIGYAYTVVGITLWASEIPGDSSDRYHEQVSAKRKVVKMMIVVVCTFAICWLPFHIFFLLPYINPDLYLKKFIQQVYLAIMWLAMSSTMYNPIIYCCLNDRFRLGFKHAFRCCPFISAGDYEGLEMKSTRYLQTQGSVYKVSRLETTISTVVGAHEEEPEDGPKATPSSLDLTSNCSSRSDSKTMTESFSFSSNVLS
168 GPCRs (Homo sapiens, UniProt P46663), sequence (P46663 whole entry): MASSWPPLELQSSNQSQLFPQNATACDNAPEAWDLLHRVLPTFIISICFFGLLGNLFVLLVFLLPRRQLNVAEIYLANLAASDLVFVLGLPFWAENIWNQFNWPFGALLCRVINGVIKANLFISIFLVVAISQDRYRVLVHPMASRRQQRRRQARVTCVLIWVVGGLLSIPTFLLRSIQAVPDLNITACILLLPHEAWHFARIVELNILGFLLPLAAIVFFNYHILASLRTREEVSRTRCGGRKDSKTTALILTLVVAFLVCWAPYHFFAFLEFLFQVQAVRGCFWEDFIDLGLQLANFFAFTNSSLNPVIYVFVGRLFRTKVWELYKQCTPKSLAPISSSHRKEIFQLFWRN
168 GPCRs (Homo sapiens, UniProt P47898), sequence (P47898 whole entry): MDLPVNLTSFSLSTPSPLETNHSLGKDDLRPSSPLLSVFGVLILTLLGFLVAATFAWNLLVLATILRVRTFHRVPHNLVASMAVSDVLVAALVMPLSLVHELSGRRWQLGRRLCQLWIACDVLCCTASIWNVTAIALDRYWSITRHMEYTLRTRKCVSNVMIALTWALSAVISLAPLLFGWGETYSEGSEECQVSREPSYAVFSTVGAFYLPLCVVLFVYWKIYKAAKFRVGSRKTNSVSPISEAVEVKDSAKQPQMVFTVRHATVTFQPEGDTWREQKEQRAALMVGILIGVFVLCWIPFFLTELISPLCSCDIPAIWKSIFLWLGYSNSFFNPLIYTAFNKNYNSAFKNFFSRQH
168 GPCRs (Homo sapiens, UniProt P51686), sequence (P51686 whole entry): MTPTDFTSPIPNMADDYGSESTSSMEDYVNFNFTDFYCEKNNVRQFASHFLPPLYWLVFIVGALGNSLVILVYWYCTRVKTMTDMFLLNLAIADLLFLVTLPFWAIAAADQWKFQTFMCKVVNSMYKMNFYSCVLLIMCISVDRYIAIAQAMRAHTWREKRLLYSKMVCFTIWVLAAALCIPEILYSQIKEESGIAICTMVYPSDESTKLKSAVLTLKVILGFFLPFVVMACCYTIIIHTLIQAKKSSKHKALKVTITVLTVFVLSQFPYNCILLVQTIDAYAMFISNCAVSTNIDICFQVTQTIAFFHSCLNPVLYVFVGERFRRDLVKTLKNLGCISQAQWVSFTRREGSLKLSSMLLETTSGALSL
168 GPCRs (Homo sapiens, UniProt P48146), sequence (P48146 whole entry): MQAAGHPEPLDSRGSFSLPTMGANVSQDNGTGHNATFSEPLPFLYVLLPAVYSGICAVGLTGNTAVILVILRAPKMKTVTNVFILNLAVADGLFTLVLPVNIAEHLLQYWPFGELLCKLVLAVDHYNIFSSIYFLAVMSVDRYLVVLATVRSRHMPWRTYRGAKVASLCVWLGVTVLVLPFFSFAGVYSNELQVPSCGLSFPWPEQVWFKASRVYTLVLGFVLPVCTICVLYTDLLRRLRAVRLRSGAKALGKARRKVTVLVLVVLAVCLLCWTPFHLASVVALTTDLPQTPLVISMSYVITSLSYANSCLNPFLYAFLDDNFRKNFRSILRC
168 GPCRs (Homo sapiens, UniProt P41586), sequence (P41586 21-468): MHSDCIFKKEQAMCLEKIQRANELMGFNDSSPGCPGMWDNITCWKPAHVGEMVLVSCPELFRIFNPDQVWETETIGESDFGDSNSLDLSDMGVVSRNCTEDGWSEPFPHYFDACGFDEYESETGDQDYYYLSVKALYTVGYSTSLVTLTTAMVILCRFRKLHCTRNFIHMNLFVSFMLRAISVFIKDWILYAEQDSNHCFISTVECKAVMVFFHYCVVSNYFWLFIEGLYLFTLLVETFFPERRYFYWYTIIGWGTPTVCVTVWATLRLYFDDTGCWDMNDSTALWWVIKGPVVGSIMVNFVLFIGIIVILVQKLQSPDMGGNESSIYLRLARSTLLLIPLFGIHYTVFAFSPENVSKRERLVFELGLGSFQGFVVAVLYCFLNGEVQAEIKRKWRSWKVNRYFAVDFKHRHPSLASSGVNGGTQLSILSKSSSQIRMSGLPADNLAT
168 GPCRs (Homo sapiens, UniProt P28222), sequence (P28222 whole entry): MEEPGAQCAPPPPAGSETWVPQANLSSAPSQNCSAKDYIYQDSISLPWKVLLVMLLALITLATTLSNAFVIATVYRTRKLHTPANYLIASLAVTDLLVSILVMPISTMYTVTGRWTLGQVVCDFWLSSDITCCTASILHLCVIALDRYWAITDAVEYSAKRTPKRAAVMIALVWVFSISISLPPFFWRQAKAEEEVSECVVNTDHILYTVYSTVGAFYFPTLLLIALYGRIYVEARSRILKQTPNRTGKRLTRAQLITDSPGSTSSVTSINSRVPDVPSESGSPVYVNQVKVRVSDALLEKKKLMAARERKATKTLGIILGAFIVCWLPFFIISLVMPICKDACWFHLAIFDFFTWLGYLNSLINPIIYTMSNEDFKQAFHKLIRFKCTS
168 GPCRs (Homo sapiens, UniProt P55085), sequence (P55085 26-397): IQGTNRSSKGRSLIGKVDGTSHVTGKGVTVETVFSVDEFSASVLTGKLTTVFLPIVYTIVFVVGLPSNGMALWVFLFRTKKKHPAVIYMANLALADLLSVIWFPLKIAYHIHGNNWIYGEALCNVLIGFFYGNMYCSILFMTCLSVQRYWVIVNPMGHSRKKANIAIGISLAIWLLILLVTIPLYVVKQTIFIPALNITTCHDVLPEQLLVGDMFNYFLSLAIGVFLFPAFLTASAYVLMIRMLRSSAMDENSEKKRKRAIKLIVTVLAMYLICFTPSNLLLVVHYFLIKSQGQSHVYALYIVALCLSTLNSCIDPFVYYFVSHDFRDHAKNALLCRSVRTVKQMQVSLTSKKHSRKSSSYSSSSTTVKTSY

Work on CNC(C)C(=O)c1ccc2c(c1)OCO2 (stereo not shown) [methylone, 3,4-methylenedioxy-N-methylcathinone] yielded an activity at 1 µM (168 GPCRs [1]; 1 uM) of -0.8%, an activity at 10 µM (168 GPCRs [1]; 10 uM) of -1.2% and an activity at 1 µM (168 GPCRs [2]; 1 uM) of 13.6%. For the same compound, the activity at 10 µM (168 GPCRs [2]; 10 uM) was 12.5%, the activity at 1 µM (168 GPCRs [3]; 1 uM) was 2.9% and the activity at 10 µM (168 GPCRs [3]; 10 uM) was -9.9%. For the same compound, the activity at 10 µM (168 GPCRs [4]; Antagonist mode, 10 uM) was 1.6%, the activity at 1 µM (168 GPCRs [4]; Antagonist, 1 uM) was 9.8% and the activity at 10 µM (168 GPCRs [5]; Antagonist mode, 10 uM) was 9.2%. The activity at 1 µM (168 GPCRs [5]; Antagonist, 1 uM) was 14.4%, the activity at 10 µM (168 GPCRs [6]; HRH2, Antagonist mode, 10 uM) was 8.1% and the activity at 1 µM (168 GPCRs [6]; HRH2, Antagonist, 1 uM) was 7.1%. For the same compound, the activity at 1 µM (168 GPCRs [7]; 1 uM) was -1.1%, the activity at 10 µM (168 GPCRs [7]; 10 uM) was -2.4% and the activity at 10 µM (168 GPCRs [8]; CRTH2, Antagonist mode, 10 uM) was 8.9%. The activity at 1 µM (168 GPCRs [8]; CRTH2, Antagonist, 1 uM) was 9%, the activity at 10 µM (168 GPCRs [9]; Antagonist mode, 10 uM) was -5.2% and the activity at 1 µM (168 GPCRs [9]; Antagonist, 1 uM) was 3.5%. For the same compound, the activity at 1 µM (168 GPCRs [10]; 1 uM) was -8%, the activity at 10 µM (168 GPCRs [10]; 10 uM) was -7.6% and the activity at 10 µM (168 GPCRs [11]; NPBWR2, Antagonist mode, 10 uM) was -14%. For the same compound, the activity at 1 µM (168 GPCRs [11]; NPBWR2, Antagonist, 1 uM) was -14.1%, the activity at 10 µM (168 GPCRs [12]; TACR1, Antagonist mode, 10 uM) was 8.9% and the activity at 1 µM (168 GPCRs [12]; TACR1, Antagonist, 1 uM) was 15.2%. For the same compound, the activity at 10 µM (168 GPCRs [13]; CXCR6, Antagonist mode, 10 uM) was 12.6%, the activity at 1 µM (168 GPCRs [13]; CXCR6, Antagonist, 1 uM) was 27.2% and the activity at 10 µM (168 GPCRs [14]; Antagonist mode, 10 uM) was -6.2%. It also gave an activity at 1 µM (168 GPCRs [14]; Antagonist, 1 uM) of -9.5%, an activity at 10 µM (168 GPCRs [15]; F2RL1, Antagonist mode, 10 uM) of 16.2% and an activity at 1 µM (168 GPCRs [15]; F2RL1, Antagonist, 1 uM) of -26.8%. It also gave an activity at 1 µM (168 GPCRs [16]; 1 uM) of 2.8%, an activity at 10 µM (168 GPCRs [16]; 10 uM) of 12.1% and an activity at 10 µM (168 GPCRs [17]; P2RY1, Antagonist mode, 10 uM) of 14.9%. It also gave an activity at 1 µM (168 GPCRs [17]; P2RY1, Antagonist, 1 uM) of 14.5%.
